# Assay results taken from patent US7667052B2 (Eisai R&D Management Co., Ltd., priority 2003, dated 2010).
# What was measured:
# [1] = test system: VEGF production in U251 human glioma cell; assay: VEGF production suppressing action under low oxygen, ELISA; type: cell-based; conditions: U251, low oxygen stimulation
# Procedure: U251 human glioma cell cultured in DULBECCO-modified eagle medium (DMEM; manufactured by SIGMA Co., Ltd.) containing 10% fetal calf serum, penicillin (100 unit/ml) and streptomycin (100 μg/ml) was dispensed in 96-well plates by 4×10^4 cells/well. After culturing at 37° C. overnight in a CO2 incubator (5% CO2), the media were removed, and 180 μl of the above-mentioned incubation solution was charged. After adding 20 μL of the above-mentioned incubation solution containing the test compound diluted with 3-fold succession, they were incubated in a low oxygen (2% O2) incubator for 18 hours. The supernatants thereof were measured by an ELISA kit (Immunobiology Research Institute).
# Concentration at which the amount of VEGF expressed by low oxygen stimulation was suppressed to 50% (IC50 value) was determined and results are shown in Table 9. […] The activities of 11107F and 11107G were very weak.
# [2] = test system: VEGF production in DU145 human colon cancer cell; assay: VEGF production suppressing action in various carcinoma cells, ELISA; type: cell-based; conditions: DU-145, low oxygen 18 hours
# Procedure: (§1) WiDr human colon cancer cell, PC3 human prostate cancer cell, DU145 human […] cancer cell and HT1080 human […] cancer cell, which were cultured in DULBECCO-modified eagle medium (manufactured by DMEM SIGMA Co., Ltd.) containing 10% fetal calf serum, penicillin (100 unit/ml) and streptomycin (100 μg/ml) were dispensed in 96 well plates by 3×10^4 cells/well. After culturing at 37° C. overnight in a CO2 incubator (5% CO2), the media were removed, and 180 μl of the above-mentioned incubation solution was charged. After adding 20 μL of the above-mentioned incubation solution containing the test compound diluted with 3-fold succession, they were incubated in a low oxygen ([…]) incubator for 18 hours. The supernatants thereof were measured by an ELISA kit (Immunobiology Research Institute).
# (§2) Concentration at which the amount of VEGF expressed by low oxygen stimulation was suppressed to 50% (IC50 value) was determined and results are shown in Table 10.
# [3] = test system: VEGF production in HT1080; assay: as above; type: cell-based; conditions: Homo sapiens; HT 1080, low oxygen 18 hours
# Procedure: as §1, §2
# [4] = test system: VEGF production in PC3 human prostate cancer cell; assay: as above; type: cell-based; conditions: PC 3, low oxygen 18 hours
# Procedure: as §1, §2
# [5] = test system: VEGF production in WiDr human colon cancer cell; assay: as above; type: cell-based; conditions: low oxygen 18 hours
# Procedure: as §1, §2
# [6] = test system: human breast cancer BSY-1 cell; assay: Solid cancer proliferation suppressing action, subcutaneous transplant; type: in vivo, mice; conditions: single administration, 10 mg/kg intravenous
# Procedure: In order to study solid cancer proliferation suppressing action of 11107B in vivo, human breast cancer BSY-1 cell was transplanted to the subcutaneous body sides of mice. The animals were grouped so that the average of the volumes of the respective groups became uniform, when it reached about 100 mm^3. Control group was made as 10 mice and 11107B-administering groups were made as 5 mice. 11107B was administrated for the 11107B-administering groups once by intravenous injection so as to be 10 mg/kg, and a vehicle was administered to the control group. The tumor volumes on the fifth day, eighth day, 12th day and 15th day were measured, and relative tumor volumes were determined setting the tumor volume at the initiation of administration as 1.
# [7] = test system: Dami human blood megakaryocytic cell; assay: Growth suppressing activity to leukemia cell, Alamar Blue; type: cell-based; conditions: 72 h, 3 days, read-out: Multiplication suppressing activity IC50
# Procedure: (§3) Dami human blood megakaryocytic cell, MOLT 4 human acute lymphoblastic cell, K562 human chronic myelogenous cell, U937 human histcytic lymphoma and p388 mouse lymphoma cultured in RPMI 1640 (manufactured by SIGMA Co., Ltd.) containing 10% fetal calf serum were dispensed in 96-well plates by 2×10^3 cells/180 μl, and they were cultured at 37° C. overnight in a CO2 incubator (5% CO2). Then, 20 μL of the above-mentioned incubation solution containing 11107B diluted with 2-fold succession was added, and they were further cultured in a CO2 incubator for 3 days.
# (§4) 20 μL of Alamar Blue reagent (Biosource Co.) was added to the cultured cell, and fluorescence activity (ex 530 nm/em 590 nm) was measured by a micro plate reader (ARBO, Perkin-Elmer Co.) after 3 to 5 hours. The cell growth of the control to which the compound is not added is set as 100%, the concentration at which it was suppressed by 50% was determined.
# [8] = test system: K562 human chronic myelogenous cell; assay: as above; type: cell-based; conditions: 72 h, K562, 3 days, read-out: Multiplication suppressing activity IC50
# Procedure: as §3, §4
# [9] = test system: MOLT 4 human acute lymphoblastic cell; assay: as above; type: cell-based; conditions: MOLT-4, 72 h, MOLT4, 3 days, read-out: Multiplication suppressing activity IC50
# Procedure: as §3, §4
# [10] = test system: U937 human histcytic lymphoma; assay: as above; type: cell-based; conditions: U-937, 72 h, U937, 3 days, read-out: Multiplication suppressing activity IC50
# Procedure: as §3, §4
# [11] = test system: p388 mouse lymphoma; assay: as above; type: cell-based; conditions: 72 h, p388, 3 days, read-out: Multiplication suppressing activity IC50
# Procedure: as §3, §4
# [12] = test system: H460, U251, BSY-1, MDA-MB435, PC-3, DU145, OVCAR-3, WiDr and B16 melanoma cells; assay: Growth suppressing activity to various cancer cells, Alamar Blue; type: cell-based, human; mouse; conditions: 72 h; range over nine cancer cell lines, 3 days; read-out: growth suppressing activity IC50 values for the studied cell lines
# Procedure: H460 human lung cancer cell, U251 human glioma cell, BSY-1 and MDA-MB435 human breast cancer cell, PC-3 and DU145 human prostate cancer cell, OVCAR-3 human ovarian cancer cell, WiDr human colon cancer cell and B16 melanoma mouse melanoma cell cultured in DMEM (manufactured by SIGMA Co., Ltd.) containing 10% fetal calf serum were dispensed in 96-well plates by 2×10^3 cells/180 μl, and they were cultured at 37° C. overnight in a CO2 incubator (5% CO2). Then, 20 μL of the above-mentioned incubation solution containing test compounds diluted with 2-fold succession was added, and they were further cultured in a CO2 incubator for 3 days.
# as §4, with “cells,” for “cell,”, “and after 3 to 5 hours,” for “and”, “Co.).” for “Co.) after 3 to 5 hours.”
compound,measurement,setting,value
CCC(O)C(C)C1OC1CC(C)/C=C/C=C(\C)C1OC(=O)CC(O)CCC(C)(O)C(OC(C)=O)/C=C/C1C (stereo not drawn) [11107B],"VEGF production suppression, in words",[1],suppressed most strongly VEGF production
same,IC50,[2],1.05 ng/mL
same,IC50,[3],1.89 ng/mL
same,IC50,[4],0.71 ng/mL
same,IC50,[5],0.65 ng/mL
same,"solid tumor suppression, in words",[6],showed the effect of suppressing solid tumor
same,IC50,[7],1.2 nM
same,IC50,[8],2.1 nM
same,IC50,[9],1.5 nM
same,IC50,[10],1.1 nM
same,IC50,[11],2 nM
same,IC50,[12],0.9 to 2.9 nM
